Test results taken from article PMC6409085, “Three odorant-binding proteins are involved in the behavioral response of Sogatella furcifera to rice plant volatiles” (PeerJ, 2019).
Values joined by “and” are separate entries in the source; they are usually repeats but may differ in a detail not shown here. Identical values can stand only once.

Experiments:
S. furcifera adults = assay: Y-tube olfactometer behavioral trials; type: in vivo, Sogatella furcifera; conditions: odorant 50 µL/L vs hexane
Procedure, shortened: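 Single S. furcifera adults (2 days post-emergence, starved 0.5 h) chose between odorant (100 µL of 50 µL/L on filter paper) and hexane control in a glass Y-tube, charcoal-filtered humidified air 300 mL/min per arm, 25 ± 1 °C, 50% RH. Choice scored if insect passed half an arm and stayed >1 min within 10 min; 45 insects per compound, chi-squared test.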

SfurOBP3 = SfurOBP3 (Sogatella furcifera, UniProt V5T818); assay: biochemical; type: binding; conditions: for Fluorescence competitive binding assay, fluorescence intensity: OBP3, three replicate columns
SfurOBP3, sequence (V5T818 entry or part of it): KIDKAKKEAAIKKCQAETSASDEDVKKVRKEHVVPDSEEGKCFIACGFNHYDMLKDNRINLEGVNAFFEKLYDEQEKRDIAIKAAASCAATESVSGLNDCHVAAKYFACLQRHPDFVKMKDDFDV
Procedure, shortened: (§1)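 First, 2.0 µM protein in 50 mM Tris-HCl (pH 7.4) was titrated with 1-NPN to obtain K1-NPN. Then odorants (2–20 µM final) competed against 2.0 µM 1-NPN, with fluorescence (ex 337 nm) recorded after 2 min. Ki was computed from IC50 via Ki = IC50/(1 + [1-NPN]/K1-NPN).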

SfurOBP2 = SfurOBP2 (Sogatella furcifera, UniProt V5T759); assay: biochemical; type: binding
SfurOBP2, sequence (V5T759 entry or part of it): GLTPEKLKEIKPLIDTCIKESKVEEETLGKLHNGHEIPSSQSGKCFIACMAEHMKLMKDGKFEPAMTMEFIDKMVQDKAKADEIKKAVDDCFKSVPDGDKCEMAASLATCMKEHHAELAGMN
Procedure, shortened: as §1

SfurOBP11 = SfurOBP11 (Sogatella furcifera, UniProt V5T6E3); assay: biochemical; type: binding
SfurOBP11, sequence (V5T6E3 entry or part of it): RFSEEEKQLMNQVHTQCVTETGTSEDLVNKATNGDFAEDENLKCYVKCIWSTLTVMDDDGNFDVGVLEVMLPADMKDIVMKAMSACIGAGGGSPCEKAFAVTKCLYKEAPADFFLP
Procedure, shortened: as §1

SfurOBP1 = SfurOBP1 (Sogatella furcifera, UniProt V5T8N5); assay: biochemical; type: binding; conditions: for Fluorescence competitive binding assay, fluorescence intensity: OBP1, three replicate columns
SfurOBP1, sequence (V5T8N5 entry or part of it): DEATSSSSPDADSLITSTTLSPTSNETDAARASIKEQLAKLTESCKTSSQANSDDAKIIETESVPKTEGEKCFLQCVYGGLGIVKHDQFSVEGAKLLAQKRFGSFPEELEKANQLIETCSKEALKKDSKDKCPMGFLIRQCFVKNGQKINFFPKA
Procedure, shortened: as §1

Compound: CC(=O)c1ccccc1 [acetophenone]
- behavioral response of S. furcifera (in words) (S. furcifera adults): strongly attracted
- number of insects choosing hexane arm (S. furcifera adults; adults): 11
- number of insects choosing volatilies arm (S. furcifera adults; adults): 20
- number of insects failed (no choice) (S. furcifera adults; adults): 9
- Fluorescence competitive binding assay, fluorescence intensity (SfurOBP3; ligand concentration 2): 34223 and 34200 and 33767
- Fluorescence competitive binding assay, fluorescence intensity (SfurOBP3; ligand concentration 4): 34565 and 34966 and 35111
- Fluorescence competitive binding assay, fluorescence intensity (SfurOBP3; ligand concentration 6): 33473 and 32986 and 33557
- Fluorescence competitive binding assay, fluorescence intensity (SfurOBP3; ligand concentration 8): 31804 and 31815 and 33904
- Fluorescence competitive binding assay, fluorescence intensity (SfurOBP3; ligand concentration 10): 31933 and 33856 and 32393
- Fluorescence competitive binding assay, fluorescence intensity (SfurOBP3; ligand concentration 12): 28357 and 30958 and 31303
- Fluorescence competitive binding assay, fluorescence intensity (SfurOBP3; ligand concentration 14): 30291 and 29441 and 31149
- Fluorescence competitive binding assay, fluorescence intensity (SfurOBP3; ligand concentration 16): 26096 and 27512 and 26789
- Fluorescence competitive binding assay, fluorescence intensity (SfurOBP3; ligand concentration 18): 36577 and 32045 and 32081
- Fluorescence competitive binding assay, fluorescence intensity (SfurOBP3; ligand concentration 20): 29304 and 29350 and 25941
- binding affinity to SfurOBP3 (in words) (SfurOBP3; SfurOBP3): high binding affinities
- IC50 (SfurOBP3; SfurOBP3, protein and 1-NPN both 2.0 µM, competitor 2-20 µM, read-out: IC50): 17.4 µM
- IC50 (SfurOBP2; SfurOBP2, protein and 1-NPN both 2.0 µM, competitor 2-20 µM, read-out: IC50): > 20 µM
- Fluorescence competitive binding assay, OBP2 (raw fluorescence reading) (SfurOBP2; ligand concentration 2 (unit not given), replicate column 1 of 3): 18213
- Fluorescence competitive binding assay, OBP2 (raw fluorescence reading) (SfurOBP2; ligand concentration 2 (unit not given), replicate column 2 of 3): 17695
- Fluorescence competitive binding assay, OBP2 (raw fluorescence reading) (SfurOBP2; ligand concentration 2 (unit not given), replicate column 3 of 3): 18887
- Fluorescence competitive binding assay, OBP2 (raw fluorescence reading) (SfurOBP2; ligand concentration 4 (unit not given), replicate column 1 of 3): 18465
- Fluorescence competitive binding assay, OBP2 (raw fluorescence reading) (SfurOBP2; ligand concentration 4 (unit not given), replicate column 2 of 3): 18805
- Fluorescence competitive binding assay, OBP2 (raw fluorescence reading) (SfurOBP2; ligand concentration 4 (unit not given), replicate column 3 of 3): 18729
- Fluorescence competitive binding assay, OBP2 (raw fluorescence reading) (SfurOBP2; ligand concentration 6 (unit not given), replicate column 1 of 3): 17576
- Fluorescence competitive binding assay, OBP2 (raw fluorescence reading) (SfurOBP2; ligand concentration 6 (unit not given), replicate column 2 of 3): 17836
- Fluorescence competitive binding assay, OBP2 (raw fluorescence reading) (SfurOBP2; ligand concentration 6 (unit not given), replicate column 3 of 3): 18066
- Fluorescence competitive binding assay, OBP2 (raw fluorescence reading) (SfurOBP2; ligand concentration 8 (unit not given), replicate column 1 of 3): 15752
- Fluorescence competitive binding assay, OBP2 (raw fluorescence reading) (SfurOBP2; ligand concentration 8 (unit not given), replicate column 2 of 3): 18865
- Fluorescence competitive binding assay, OBP2 (raw fluorescence reading) (SfurOBP2; ligand concentration 8 (unit not given), replicate column 3 of 3): 17007
- Fluorescence competitive binding assay, OBP2 (raw fluorescence reading) (SfurOBP2; ligand concentration 10 (unit not given), replicate column 1 of 3): 16925
- Fluorescence competitive binding assay, OBP2 (raw fluorescence reading) (SfurOBP2; ligand concentration 10 (unit not given), replicate column 2 of 3): 17786
- Fluorescence competitive binding assay, OBP2 (raw fluorescence reading) (SfurOBP2; ligand concentration 10 (unit not given), replicate column 3 of 3): 17356
- Fluorescence competitive binding assay, OBP2 (raw fluorescence reading) (SfurOBP2; ligand concentration 12 (unit not given), replicate column 1 of 3): 16049
- Fluorescence competitive binding assay, OBP2 (raw fluorescence reading) (SfurOBP2; ligand concentration 12 (unit not given), replicate column 2 of 3): 16437
- Fluorescence competitive binding assay, OBP2 (raw fluorescence reading) (SfurOBP2; ligand concentration 12 (unit not given), replicate column 3 of 3): 16824
- Fluorescence competitive binding assay, OBP2 (raw fluorescence reading) (SfurOBP2; ligand concentration 14 (unit not given), replicate column 1 of 3): 15270
- Fluorescence competitive binding assay, OBP2 (raw fluorescence reading) (SfurOBP2; ligand concentration 14 (unit not given), replicate column 2 of 3): 15647
- Fluorescence competitive binding assay, OBP2 (raw fluorescence reading) (SfurOBP2; ligand concentration 14 (unit not given), replicate column 3 of 3): 14905
- Fluorescence competitive binding assay, OBP2 (raw fluorescence reading) (SfurOBP2; ligand concentration 16 (unit not given), replicate column 1 of 3): 15319
- Fluorescence competitive binding assay, OBP2 (raw fluorescence reading) (SfurOBP2; ligand concentration 16 (unit not given), replicate column 2 of 3): 14300
- Fluorescence competitive binding assay, OBP2 (raw fluorescence reading) (SfurOBP2; ligand concentration 16 (unit not given), replicate column 3 of 3): 16123
- Fluorescence competitive binding assay, OBP2 (raw fluorescence reading) (SfurOBP2; ligand concentration 18 (unit not given), replicate column 1 of 3): 15075
- Fluorescence competitive binding assay, OBP2 (raw fluorescence reading) (SfurOBP2; ligand concentration 18 (unit not given), replicate column 2 of 3): 15152
- Fluorescence competitive binding assay, OBP2 (raw fluorescence reading) (SfurOBP2; ligand concentration 18 (unit not given), replicate column 3 of 3): 15228
- Fluorescence competitive binding assay, OBP2 (raw fluorescence reading) (SfurOBP2; ligand concentration 20 (unit not given), replicate column 1 of 3): 14131
- Fluorescence competitive binding assay, OBP2 (raw fluorescence reading) (SfurOBP2; ligand concentration 20 (unit not given), replicate column 2 of 3): 14026
- Fluorescence competitive binding assay, OBP2 (raw fluorescence reading) (SfurOBP2; ligand concentration 20 (unit not given), replicate column 3 of 3): 13920
- IC50 (SfurOBP11; SfurOBP11, protein and 1-NPN both 2.0 µM, competitor 2-20 µM, read-out: IC50): > 20 µM
- Fluorescence intensity, fluorescence competitive binding assay, OBP11 (SfurOBP11; ligand concentration 2, replicate 1): 26535
- Fluorescence intensity, fluorescence competitive binding assay, OBP11 (SfurOBP11; ligand concentration 2, replicate 2): 26162
- Fluorescence intensity, fluorescence competitive binding assay, OBP11 (SfurOBP11; ligand concentration 2, replicate 3): 26541
- Fluorescence intensity, fluorescence competitive binding assay, OBP11 (SfurOBP11; ligand concentration 4, replicate 1): 25394
- Fluorescence intensity, fluorescence competitive binding assay, OBP11 (SfurOBP11; ligand concentration 4, replicate 2): 26325
- Fluorescence intensity, fluorescence competitive binding assay, OBP11 (SfurOBP11; ligand concentration 4, replicate 3): 27262
- Fluorescence intensity, fluorescence competitive binding assay, OBP11 (SfurOBP11; ligand concentration 6, replicate 1): 26264
- Fluorescence intensity, fluorescence competitive binding assay, OBP11 (SfurOBP11; ligand concentration 6, replicate 2): 26035
- Fluorescence intensity, fluorescence competitive binding assay, OBP11 (SfurOBP11; ligand concentration 6, replicate 3): 26502
- Fluorescence intensity, fluorescence competitive binding assay, OBP11 (SfurOBP11; ligand concentration 8, replicate 1): 25045
- Fluorescence intensity, fluorescence competitive binding assay, OBP11 (SfurOBP11; ligand concentration 8, replicate 2): 25714
- Fluorescence intensity, fluorescence competitive binding assay, OBP11 (SfurOBP11; ligand concentration 8, replicate 3): 24376
- Fluorescence intensity, fluorescence competitive binding assay, OBP11 (SfurOBP11; ligand concentration 10, replicate 1): 24885
- Fluorescence intensity, fluorescence competitive binding assay, OBP11 (SfurOBP11; ligand concentration 10, replicate 2): 24226
- Fluorescence intensity, fluorescence competitive binding assay, OBP11 (SfurOBP11; ligand concentration 10, replicate 3): 23566
- Fluorescence intensity, fluorescence competitive binding assay, OBP11 (SfurOBP11; ligand concentration 12, replicate 1): 21957
- Fluorescence intensity, fluorescence competitive binding assay, OBP11 (SfurOBP11; ligand concentration 12, replicate 2): 22135
- Fluorescence intensity, fluorescence competitive binding assay, OBP11 (SfurOBP11; ligand concentration 12, replicate 3): 20925
- Fluorescence intensity, fluorescence competitive binding assay, OBP11 (SfurOBP11; ligand concentration 14, replicate 1): 23062
- Fluorescence intensity, fluorescence competitive binding assay, OBP11 (SfurOBP11; ligand concentration 14, replicate 2): 21821
- Fluorescence intensity, fluorescence competitive binding assay, OBP11 (SfurOBP11; ligand concentration 14, replicate 3): 20452
- Fluorescence intensity, fluorescence competitive binding assay, OBP11 (SfurOBP11; ligand concentration 16, replicate 1): 19007
- Fluorescence intensity, fluorescence competitive binding assay, OBP11 (SfurOBP11; ligand concentration 16, replicate 2): 19354
- Fluorescence intensity, fluorescence competitive binding assay, OBP11 (SfurOBP11; ligand concentration 16, replicate 3): 17450
- Fluorescence intensity, fluorescence competitive binding assay, OBP11 (SfurOBP11; ligand concentration 18, replicate 1): 21957
- Fluorescence intensity, fluorescence competitive binding assay, OBP11 (SfurOBP11; ligand concentration 18, replicate 2): 23680
- Fluorescence intensity, fluorescence competitive binding assay, OBP11 (SfurOBP11; ligand concentration 18, replicate 3): 21455
- Fluorescence intensity, fluorescence competitive binding assay, OBP11 (SfurOBP11; ligand concentration 20, replicate 1): 23354
- Fluorescence intensity, fluorescence competitive binding assay, OBP11 (SfurOBP11; ligand concentration 20, replicate 2): 26458
- Fluorescence intensity, fluorescence competitive binding assay, OBP11 (SfurOBP11; ligand concentration 20, replicate 3): 24921
- Fluorescence competitive binding assay, fluorescence intensity (SfurOBP1; ligand concentration 2 (μM)): 5574 and 5550 and 5238
- Fluorescence competitive binding assay, fluorescence intensity (SfurOBP1; ligand concentration 4 (μM)): 4710 and 5782 and 5020
- Fluorescence competitive binding assay, fluorescence intensity (SfurOBP1; ligand concentration 6 (μM)): 5308 and 5201 and 5270
- Fluorescence competitive binding assay, fluorescence intensity (SfurOBP1; ligand concentration 8 (μM)): 4498 and 4902 and 5186
- Fluorescence competitive binding assay, fluorescence intensity (SfurOBP1; ligand concentration 10 (μM)): 4649 and 5445 and 5409
- Fluorescence competitive binding assay, fluorescence intensity (SfurOBP1; ligand concentration 12 (μM)): 5039 and 5542 and 4835
- Fluorescence competitive binding assay, fluorescence intensity (SfurOBP1; ligand concentration 14 (μM)): 5190 and 5205 and 6069
- Fluorescence competitive binding assay, fluorescence intensity (SfurOBP1; ligand concentration 16 (μM)): 4320 and 5267 and 4703
- Fluorescence competitive binding assay, fluorescence intensity (SfurOBP1; ligand concentration 18 (μM)): 5435 and 5537 and 6009
- Fluorescence competitive binding assay, fluorescence intensity (SfurOBP1; ligand concentration 20 (μM)): 6807 and 4924 and 6337
- IC50 (SfurOBP1; SfurOBP1, protein and 1-NPN both 2.0 µM, competitor 2-20 µM, read-out: IC50): > 20 µM
